Laboratory results as given in US9302993B2, “8-hydroxy quinoline derivatives” (PRANA BIOTECHNOLOGY LIMITED, priority 2002, dated 2016).
≈ marks a conversion by molar mass, not a printed value. Read-outs that look alike come from different tables or passages of the source.

Experiments:
[1] = tested on: Aβ in extract of tissue from post mortem human AD brain; test: Human brain amyloid solubilisation assay (Assay 9, BAS); assay type: biochemical; conditions: solubilising plaques relative to PBS
Method in brief: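 Plaque-bearing post mortem AD cortex homogenised in ice-cold PBS pH 7.4 and spun 100,000×g, 30 min to separate PBS-soluble supernatant from insoluble pellet. Aβ in each fraction resolved on Tris-Tricine 10-20% gels, immunoblotted with W02 antibody and ECL, quantified by densitometry against synthetic Aβ40 standards (0.5, 1, 2 ng).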

[2] = tested on: Neuronal cortical cells treated with Aβ1-42; test: Assay for Aβ neurotoxicity and Aβ neuroprotection (Assay 3(c)); assay type: cell-based, mouse; conditions: 20 uM Aβ1-42, 4 days, MTS
APP2576 transgenic mouse = test: Effect of administration of test compounds on Aβ deposits in transgenic animals (Assay 11); assay type: in vivo; parameters: concentration or dose not given beside the values; conditions: transgenic mouse brains; for Insoluble fraction. % change compared with control.: insoluble Aβ; for Soluble fraction. % change compared with control.: soluble Aβ
[3] = molecular target: T1, hydrogen peroxide generation by Aβ in the presence of copper (Homo sapiens, UniProt P05067); test: Fluorometric H2O2 assay (Assay 1); assay type: biochemical; conditions: Aβ 1-42 with Cu-Gly, DCF/HRP, 37 C 60 min; several values in one cell = repeat determinations; read-out: Peroxide IC50
T1 construct: The reaction solutions contained Aβ 1-42 at concentrations in the range of 50 nM to 1 μM
Method in brief: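 Aβ1-42 (50 nM–1 μM) with Cu-glycine (2 Cu-Gly : 1 Aβ) and a reductant (dopamine 5 μM or ascorbic acid) was incubated 60 min at 37 °C in PBS pH 7.4 with test compound. H2O2 was detected with 100 μM deacetylated DCF and 0.1 μM HRP by fluorescence against H2O2 standards.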

[4] = Turbidimetric solubility measurements (Assay 13); assay type: physicochemical; conditions: kinetic from dmso stock, 1% DMSO, nephelometry
Procedure: Turbidimetric Solubility Measurements
The solubility estimate was measured at both pH 2.0 and pH 6.5. This is within the pH range that can be anticipated along the proximal gastrointestinal tract in humans.
The compounds were dissolved in DMSO to appropriate concentrations and then spiked into either 0.01M HCl (approx. pH=2.0) or pH 6.5 isotonic phosphate buffer, the final DMSO concentration being 1%. Samples were then analysed via Nephelometry to determine a solubility range. [as per D. Bevan and R. S. Lloyd, Anal. Chem. 2000, 72, 1781-1787].

[5] = aqueous buffer, pH 6.5 isotonic phosphate buffer, read-out: Solubility pH 6.5
[6] = simulated gastric fluid, 0.01M HCl (approx. pH 2.0), read-out: Solubility (μg/mL) 0.01M HCl

T1 sequence (P05067 672-713 limits assumed): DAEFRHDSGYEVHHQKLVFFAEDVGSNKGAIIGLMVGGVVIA

CN(C)Cc1ccc2c(Cl)cc(Cl)c(O)c2n1.Cl [compound 1033, 5,7-Dichloro-2-dimethylaminomethyl-quinolin-8-ol hydrochloride]
BAS Score [1]: + | % inhibition Abeta toxicity [2]: 38% | Insoluble fraction. % change compared with control. (APP2576 transgenic mouse): −29% | Soluble fraction. % change compared with control. (APP2576 transgenic mouse): −37% | IC50 [3]: 380 nM | solubility [4, 5]: 3.1 to 6.2 µg/mL | solubility [4, 6]: < 3.1 µg/mL

Cn1cnc(CCNC(=O)c2ccc3c(Cl)cc(Cl)c(O)c3n2)c1 [compound 1050, 5,7-dichloro-8-hydroxyquinoline-2-carboxylic acid [2-(1-methyl-1H-imidazol-4-yl)-ethyl]-amide]
% inhibition Abeta toxicity [2]: 6% | IC50 [3]: 280 nM | solubility [4, 5]: 12.5 to 25 µg/mL (≈ 34.2 to 68.5 µM) | solubility [4, 6]: 25 to 50 µg/mL (≈ 68.5 to 137 µM)

O=C(NCCc1c[nH]cn1)c1ccc2c(Cl)cc(Cl)c(O)c2n1 [compound 1038, 5,7-Dichloro-8-hydroxyquinoline-2-carboxylic acid [2-(1H-imidazol-4-yl)-ethyl]-amide]
BAS Score [1]: + | % inhibition Abeta toxicity [2]: 19% | Insoluble fraction. % change compared with control. (APP2576 transgenic mouse): −37% | Soluble fraction. % change compared with control. (APP2576 transgenic mouse): negligible | solubility [4, 5]: 12.5 to 25 µg/mL (≈ 35.6 to 71.2 µM) | solubility [4, 6]: 3.1 to 6.2 µg/mL (≈ 8.83 to 17.7 µM)

CCNCc1ccc2c(Cl)cc(Cl)c(O)c2n1.Cl [compound 1051, 5,7-dichloro-2-ethylaminomethyl-quinolin-8-ol hydrochloride]
BAS Score [1]: + | % inhibition Abeta toxicity [2]: 23% | Insoluble fraction. % change compared with control. (APP2576 transgenic mouse): −21% | Soluble fraction. % change compared with control. (APP2576 transgenic mouse): negligible | solubility [4, 5]: < 3.1 µg/mL | solubility [4, 6]: < 3.1 µg/mL
